This passage reports IC50, melting point and inhibition results from US6858739B2, “Indole and benzimidazole 15-lipoxygenase inhibitors” (Warner-Lambert Company, priority 2000, dated 2005).

Data set [1] concerns the target T1, rabbit reticulocyte 15-LO (Oryctolagus cuniculus, UniProt P12530).
T1 construct: one utilizing rabbit reticulocyte 15-LO; from tissue; host or cells: rabbit reticulocytes
T1 sequence (P12530 1-663): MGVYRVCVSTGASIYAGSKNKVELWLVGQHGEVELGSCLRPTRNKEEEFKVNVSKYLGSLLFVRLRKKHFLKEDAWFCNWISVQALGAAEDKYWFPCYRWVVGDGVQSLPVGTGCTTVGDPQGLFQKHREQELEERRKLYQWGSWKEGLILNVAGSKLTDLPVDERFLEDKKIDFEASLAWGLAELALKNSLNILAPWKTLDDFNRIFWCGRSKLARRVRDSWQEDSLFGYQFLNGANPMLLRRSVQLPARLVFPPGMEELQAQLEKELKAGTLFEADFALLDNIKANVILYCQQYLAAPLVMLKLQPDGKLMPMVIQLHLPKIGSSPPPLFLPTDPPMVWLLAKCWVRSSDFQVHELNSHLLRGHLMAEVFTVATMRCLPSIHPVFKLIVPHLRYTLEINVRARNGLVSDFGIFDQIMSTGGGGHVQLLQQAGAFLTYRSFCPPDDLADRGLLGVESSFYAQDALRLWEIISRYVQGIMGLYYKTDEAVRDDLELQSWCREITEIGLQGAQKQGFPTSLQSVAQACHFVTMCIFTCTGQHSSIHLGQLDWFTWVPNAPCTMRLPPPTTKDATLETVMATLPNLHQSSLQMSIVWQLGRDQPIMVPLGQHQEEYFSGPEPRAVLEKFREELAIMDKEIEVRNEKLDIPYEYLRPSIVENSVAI
The data set is described as follows: 15-LO inhibition, rabbit reticulocyte enzyme (HPLC method of Auerbach et al.). The data set is classed as biochemical. The note with it: linoleic acid as substrate, incubation at 4° C. for 10 minutes. As to the method:
(§1) The compounds described above are effective inhibitors of 15-LO when evaluated in standard assays routinely utilized to measure 15-LO activity. Specifically, representative compounds were evaluated by the methods described by Auerbach et al., Analytical Biochemistry, 1992;201:375-380. Two in vitro assays were utilized, one utilizing rabbit reticulocyte 15-LO, the other using human 15-LO. Both used linoleic acid as substrate, to enzymatically produce a peroxide oxidation product known as 13(S)-HPODE. N-Benzoyl leucomethylene blue was utilized as a colorimetric reagent for detection and quantification of the peroxide formation. Also, HPLC was utilized to quantify the oxidation following incubation at 4° C. for 10 minutes.
(§2) Data Column 1 gives the concentration of compound required to inhibit 50% of the activity of 15-LO (IC50) when measured by the HPLC method of Auerbach et al. using rabbit enzymes, and data Column 2 gives data from human 15-LO enzyme.

The target of a further data set is T2, human 15-LO (Homo sapiens, UniProt P16050).
T2 sequence (P16050 1-662): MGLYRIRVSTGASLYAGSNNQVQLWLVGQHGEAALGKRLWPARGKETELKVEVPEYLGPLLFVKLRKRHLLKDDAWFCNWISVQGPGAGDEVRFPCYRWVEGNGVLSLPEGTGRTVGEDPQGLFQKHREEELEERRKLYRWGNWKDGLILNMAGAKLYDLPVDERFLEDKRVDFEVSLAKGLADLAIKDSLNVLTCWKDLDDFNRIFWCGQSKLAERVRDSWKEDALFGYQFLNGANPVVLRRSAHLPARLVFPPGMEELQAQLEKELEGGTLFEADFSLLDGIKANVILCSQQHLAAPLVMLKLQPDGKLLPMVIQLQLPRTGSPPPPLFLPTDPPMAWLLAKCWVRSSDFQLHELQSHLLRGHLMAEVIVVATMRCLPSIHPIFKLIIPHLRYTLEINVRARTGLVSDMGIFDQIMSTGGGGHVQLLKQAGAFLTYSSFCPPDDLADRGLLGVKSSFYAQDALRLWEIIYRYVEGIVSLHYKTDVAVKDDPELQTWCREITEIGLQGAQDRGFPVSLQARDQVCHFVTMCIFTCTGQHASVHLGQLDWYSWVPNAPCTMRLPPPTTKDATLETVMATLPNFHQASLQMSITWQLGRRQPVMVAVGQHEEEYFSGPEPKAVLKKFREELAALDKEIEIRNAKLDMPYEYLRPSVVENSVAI
The data set is described as follows: 15-LO inhibition, human enzyme. The data set is classed as biochemical. The note with it: linoleic acid as substrate; for inhibition at 10 µM: at 10 micromolar. How it is done: as §1, §2

With `COc1ccc(-c2cc3ccccc3[nH]2)cc1N` [Example 1, 5-(1H-Indol-2-yl)-2-methoxy-phenylamine], the melting point was in the range of 208 to 209 °C. Besides, in data set [1], 113 nM corresponded to half-maximal inhibition (IC50). On human 15-LO, this compound yielded a half-maximal inhibitory concentration (IC50) of 23 nM.

Compound `COc1ccc(-c2cc3ccccc3[nH]2)cc1NC(=S)Nc1cc(Cl)cc(Cl)c1` [Example 2, 1-(3,5-Dichloro-phenyl)-3-[5-(1H-indol-2-yl)-2-methoxy-phenyl]-thiourea] registered a melting point of 199 to 201 °C. The same compound displayed an IC50 in data set [1] of 11 nM. Moreover, at human 15-LO, the IC50 was determined as 29 nM.

`COc1ccc(-c2cc3cc(F)c(F)cc3[nH]2)cc1N` [Example 3, 5-(5,6-Difluoro-1H-indol-2-yl)-2-methoxy-phenylamine] had a melting point of 210 to 211 °C. For the same compound, in data set [1], the IC50 is 27 nM. The same compound had an IC50 on human 15-LO of 53 nM.

On to `COc1ccc(-c2cc3cc(F)c(F)cc3[nH]2)cc1NC(=S)Nc1cc(Cl)cc(Cl)c1` [Example 4, 1-(3,5-Dichloro-phenyl)-3-[5-(5,6-difluoro-1H-indol-2-yl)-2-methoxy-phenyl]-thiourea], for which the melting point is 203 to 205 °C. The compound also had an IC50 in data set [1] of 30 nM. This compound also gave an IC50 on human 15-LO of 60 nM.

`COc1ccc(-c2cc3cc(F)c(F)cc3[nH]2)cc1NCc1cccc(O)c1` [Example 11, 3-{[5-(5,6-Difluoro-1H-indol-2-yl)-2-methoxy-phenylamine]-methyl}-phenol]: the IC50 in data set [1] amounted to 24 nM; on human 15-LO, 106 nM.

For the compound `COc1ccc(-c2cc3ccccc3[nH]2)cc1NC(=S)NCCNC(=O)OC(C)(C)C` [Example 31, (2-{3-[5-(1H-Indol-2-yl)-2-methoxy-phenyl]-thioureido}-ethyl)-carbamic acid tert-butyl ester], the melting point is 159 to 160 °C. The same compound yielded an IC50 at human 15-LO of 141 nM.

In the case of `COc1ccc(-c2cc3ccccc3[nH]2)cc1NC(=S)Nc1ccc(C(=O)O)cc1` [Example 32, 4-{3-[5-(1H-Indol-2-yl)-2-methoxy-phenyl]-thioureido}-benzoic acid], the melting point fell in the range of 201 to 203 °C. On human 15-LO, this compound displayed an IC50 of 304 nM.

As to `COc1ccc(-c2cc3ccccc3[nH]2)cc1NC(=S)Nc1cccc(CC(=O)O)c1` [Example 33, (3-{3-[5-(1H-Indol-2-yl)-2-methoxy-phenyl]-thioureido}-phenyl)-acetic acid], the melting point fell in the range of 174 to 175 °C. Half-maximal inhibition against human 15-LO (IC50) was put at 740 nM.

Take `COc1ccc(-c2cc3ccccc3[nH]2)cc1NC(=S)Nc1ccc(CC(=O)O)cc1` [Example 34, (4-{3-[5-(1H-Indol-2-yl)-2-methoxy-phenyl]-thioureido}-phenyl)-acetic acid]: the melting point lay in the range of 190 to 192 °C. Also, half-maximal inhibition against human 15-LO (IC50) was put at 1440 nM.

`COc1ccc(-c2cc3cc(F)c(F)cc3[nH]2)cc1NC(=S)N[C@@H](C)c1ccccc1` [Example 35, 1-[5-(5,6-Difluoro-1H-indol-2-yl)-2-methoxy-phenyl]-3-((S)-1-phenyl-ethyl)-thiourea] showed a melting point of 102 to 106 °C. The 50% inhibitory concentration (IC50) at human 15-LO stood at 538 nM.

Regarding `COc1ccc(-c2cc3cc(F)c(F)cc3[nH]2)cc1NC(=S)N[C@@H](COC(C)(C)C)C(=O)OC(C)(C)C` [Example 36, (S)-3-tert-Butoxy-2-{3-[5-(5,6-Difluoro-1H-indol-2-yl)-2-methoxy-phenyl]-thioureido}-propionic acid tert-butyl ester], the melting point lay within 111 to 114 °C. In addition, testing at 10 µM on human 15-LO gave an inhibition of 51%.

Take `COc1ccc(-c2cc3ccccc3[nH]2)cc1NCc1cccc([N+](=O)[O-])c1` [Example 42, [5-(1H-indol-2-yl)-2-methoxy-phenyl]-(3-nitro-benzyl)-amine]: the melting point lay within 160 to 162 °C. Besides, the 50% inhibitory concentration (IC50) against human 15-LO stood at 870 nM.

Regarding `COc1ccc(-c2cc3ccccc3[nH]2)cc1NCc1ccc([N+](=O)[O-])cc1` [Example 43, [5-(1H-Indol-2-yl)-2-methoxy-phenyl]-(4-nitro-benzyl)-amine], the melting point was 198 to 199 °C. This compound gave an IC50 against human 15-LO of 920 nM.

For the compound `COc1ccc(-c2cc3ccccc3[nH]2)cc1NCc1ccc([N+](=O)[O-])c(O)c1` [Example 44, [5-(1H-Indol-2-yl)-2-methoxy-phenyl]-(3-hydroxy-4-nitro-benzyl)-amine], the melting point fell in the range of 134 to 135 °C. The IC50 on human 15-LO amounted to 236 nM.

The compound `COc1ccc(-c2cc3ccccc3[nH]2)cc1NCc1ccc(O)c([N+](=O)[O-])c1` [Example 45, [5-(1H-Indol-2-yl)-2-methoxy-phenyl]-(4-hydroxy-3-nitro-benzyl)-amine] showed a melting point of 165 to 166 °C. The compound further displayed an IC50 on human 15-LO of 420 nM.

In the case of `COc1ccc(-c2cc3cc(F)c(F)cc3[nH]2)cc1NCc1cccc([N+](=O)[O-])c1` [Example 46, [5-(5,6-Difluoro-1H-indol-2-yl)-2-methoxy-phenyl]-(3-nitro-benzyl)-amine], the melting point is 212 to 214 °C. The 50% inhibitory concentration (IC50) against human 15-LO came out at 3030 nM.

For `COc1ccc(-c2cc3cc(F)c(F)cc3[nH]2)cc1NCc1ccc([N+](=O)[O-])cc1` [Example 47, [5-(5,6-Difluoro-1H-indol-2-yl)-2-methoxy-phenyl]-(4nitro-benzyl)-amine], the melting point was 181 to 182 °C. At human 15-LO, this compound had an IC50 of 534 nM.

On to `COc1ccc(-c2cc3cc(F)c(F)cc3[nH]2)cc1NCc1ccc([N+](=O)[O-])c(O)c1` [Example 48, [5-(5,6-Difluoro-1H-indol-2-yl)-2-methoxy-phenyl]-(3-hydroxy-4-nitro-benzyl)-amine], for which the melting point was 170 to 171 °C. This compound also had an inhibition at 10 µM at human 15-LO of 98%.

`COc1ccc(-c2cc3cc(F)c(F)cc3[nH]2)cc1NCc1ccc(O)c([N+](=O)[O-])c1` [Example 49, [5-(5,6-Difluoro-1H-indol-2-yl)-2-methoxy-phenyl](4-hydroxy-3-nitro-benzyl)-amine] gave a melting point of 195 to 196 °C. Besides, at human 15-LO, the inhibition at 10 µM was 99%.

The compound `COc1ccc(-c2cc3cc(F)c(F)cc3[nH]2)cc1NCc1cccc(C#N)c1` [Example 51, [5-(5,6-Difluoro-1H-indol-2yl)-2-methoxy-phenyl]-(3-cyano-benzyl)-amine] gave a melting point of 154 to 155 °C. In addition, half-maximal inhibition on human 15-LO (IC50) was put at 432 nM.

`COC(=O)c1ccc(Nc2cc(-c3cc4cc(F)c(F)cc4[nH]3)ccc2OC)cc1` [Example 52, 4-[5-(5,6-Difluoro-1H-indol-2-yl)-2-methoxy-phenylamino]-benzoic acid methyl ester] gave a melting point of 166 to 170 °C. On human 15-LO, this compound gave an IC50 of 31 nM.

As for `COc1ccc(-c2cc3cc(F)c(F)cc3[nH]2)cc1Nc1cccc(OCc2ccccc2)c1` [Example 53, [5-(5,6-Difluoro-1H-indol-2-yl)-2-methoxy-phenyl]-(3-benzyloxy-phenyl)-amine], the half-maximal inhibitory concentration (IC50) amounted to 16 nM in data set [1] and 22 nM on human 15-LO.

`COc1ccc(-c2cc3cc(Cl)c(Cl)cc3[nH]2)cc1Nc1cccc(C(F)(F)F)c1` [Example 54, [5-(5,6-Dichloro-1H-indol-2-yl)-2-methoxy-phenyl]-(3-trifluoro-methylphenyl)-amine] displayed a melting point of 193 to 194 °C. For the same compound, on human 15-LO, the IC50 was found to be 127 nM.
